A value given as a limit tells only on which side of the number the result lay.

As usually defined, the IC50 is the concentration that gives 50% inhibition. Broadly, the IC90 is the concentration needed for an effect of 90%. What is called CC50 is the concentration giving 50% cytotoxicity. Lower therefore signals greater toxicity to the cells.

This experiment concerns M. tuberculosis H37Rv growth inhibition. Kind of experiment: M. tuberculosis H37Rv growth inhibitors, H37Rv strain (AID 1626). As to conditions: for IC90: measured here: IC90 against H37Rv; for CC50: measured here: Vero cell cytotoxicity.

Regarding `Cc1cc(C)cc(OCc2nnc(SCC(=O)OC3CCCCC3)o2)c1`, the IC50 was 1.83 µM and the IC90 is 11.8 µM.
With `O=C(c1ccc([N+](=O)[O-])s1)N1CCN(c2cccc(Cl)c2)CC1`, the IC50 is 9.2 µM, the IC90 worked out at 12.8 µM and the cytotoxic concentration (CC50) came to 31.6 µM.
With `Cc1ccccc1C(=O)Nc1nnc(-c2ccc(F)cc2)o1`, the IC50 is 1.11 µM, the IC90 was 3.78 µM and the cytotoxic concentration (CC50) amounted to 39.1 µM.
Taken in the same sequence, the figures for `Cc1ccc2nc(/C(C#N)=C\c3ccc(OC(=O)c4cccs4)cc3)[nH]c2c1` were 20.4 µM, greater than 100 µM and 22.9 µM.
In the same order, the values of `COc1ccc(CNCc2cc3c(C(C)(C)C)nn(-c4ccccc4)c3[nH]c2=O)cc1` are 11.4 µM, 13 µM and greater than 40 µM.
Take `CCOC(=O)c1ccc(N=Cc2nc3ccccc3n2C)cc1`: the IC50 was 12.7 µM and the IC90 is greater than 100 µM.
Regarding `COc1ccc(NC(=O)c2nc[nH]c2C(=O)N[C@@H](C)c2ccccc2)cc1`, the IC50 was 5.7 µM, the 90% effect concentration (IC90) came to 22.4 µM and the CC50 is greater than 40 µM.
Molecule `CCOc1ccc(/C=C/C(=O)c2ccccc2)cc1OC` came in with a concentration for an effect of 90% (IC90) greater than 100 µM and a 50% cytotoxic concentration (CC50) greater than 40 µM.
Take `COc1cccc(C(=O)Nc2nc(-c3ccccc3)c(-c3ccccc3)o2)c1`: the IC50 is less than 0.195 µM, the IC90 was 6.62 µM and the CC50 was greater than 40 µM.
Consider `CCCOC(=O)CSc1nnc(-c2cc(OC)c(OC)c(OC)c2)o1`, for which the IC50 was 0.728 µM and the 90% effect concentration (IC90) is 1.83 µM.
`CCCCn1c(O)c(C(C)=Nc2ccc(OCC)cc2)c(=O)[nH]c1=O`: the half-maximal inhibitory concentration (IC50) was 5.45 µM, the IC90 is greater than 100 µM and the CC50 is greater than 40 µM.
In the case of `Cc1nc2ccc(NC(=O)c3ccc(Br)o3)cc2s1`, the half-maximal inhibitory concentration (IC50) is 64.2 µM and the 90% effect concentration (IC90) was greater than 100 µM.
Take `c1ccc(-c2nc(N3CCOCC3)c3ccccc3n2)nc1`: the IC50 is 5.22 µM, the IC90 worked out at 14.5 µM and the CC50 is greater than 40 µM.
With `COCCOC(=O)c1c(C)oc2ccc(OC(=O)c3ccco3)cc12`, the IC50 was 7.1 µM and the concentration for an effect of 90% (IC90) is greater than 100 µM.
In the case of `CCOc1ccc(-c2nnc(NC(=O)c3ccc(OCC(C)C)c(OC)c3)o2)cc1`, the concentration for half-maximal inhibition (IC50) was 10.1 µM, the concentration for an effect of 90% (IC90) was greater than 100 µM and the CC50 turned out to be 25.3 µM.
Take `CCCOC(=O)c1ccc(NC(=O)c2ccc(Br)o2)cc1`: the IC50 is 0.683 µM and the IC90 stood at 2.82 µM.
As for `CCN(CC)CCCNc1nc2cc(OC)c(OC)cc2c2nc(-c3ccccc3)nn12`, the IC50 is 9.3 µM, the 90% effect concentration (IC90) was 13.8 µM and the CC50 was greater than 40 µM.
`O=C(CSc1nnc(-c2ccco2)o1)c1ccccc1Cl` had an IC90 greater than 100 µM.
The molecule `O=C(CNCc1ccco1)Nc1ccc(Oc2ccccc2)cc1` registered an IC90 greater than 100 µM and a half-maximal cytotoxic concentration (CC50) greater than 40 µM.
Regarding `COC(=O)c1cc(=O)n(-c2ccccc2)c(=Nc2ccccc2)s1`, the IC50 is 5.19 µM, the concentration for an effect of 90% (IC90) is 17.7 µM and the CC50 was determined as 27.6 µM.
As for `O=C(NCCc1nc2ccccc2[nH]1)/C(=C/c1ccc2c(c1)OCO2)NC(=O)c1ccc(Cl)cc1Cl`, the half-maximal inhibitory concentration (IC50) is 20.6 µM and the IC90 was 52.9 µM.
In the same order, the values of `COC(=O)c1ccc(Cn2cc(C(F)(F)F)cc([N+](=O)[O-])c2=O)cc1` are 29.9 µM and greater than 100 µM.
`Cc1cc(NC(=O)c2c(F)cccc2Cl)n(-c2nc3ccccc3[nH]2)n1`: the IC50 is 16.5 µM, the IC90 amounted to 25.9 µM and the CC50 is greater than 40 µM.
Take `CCOc1ccc(NCc2nnc(SCc3ccc(Cl)cc3)n2-c2ccccc2)cc1`: the cytotoxic concentration (CC50) is greater than 40 µM.
Consider `Cc1nc(S/C(=C/c2ccc(-c3ccc(Cl)cc3)o2)C(=O)O)n[nH]1`, for which the IC50 was 10.6 µM, the IC90 was greater than 100 µM and the CC50 is greater than 40 µM.
In the same order, the values of `CCOC(=O)c1sc(NC(=O)CNCc2ccccn2)c(C(=O)OCC)c1C` are 2.77 µM, 4.22 µM and greater than 40 µM.
Take `O=C(COc1ccc2c(C(F)(F)F)cc(=O)oc2c1)NCc1cccs1`: the 50% inhibitory concentration (IC50) was 14.8 µM and the IC90 is greater than 100 µM.
In the same order, the values of `COc1cc(NC(=O)c2ccc(Cl)cc2)c(OC)cc1NC(=O)CN1CCCCC1` are 8.74 µM and 16.9 µM.
As to `Cc1ccc(Oc2cc(NC(=O)CCCn3nc(C)c([N+](=O)[O-])c3C)cc([N+](=O)[O-])c2)cc1`, the IC50 was 2.33 µM, the concentration for an effect of 90% (IC90) came to 3.34 µM and the CC50 is greater than 40 µM.
As for `CCCCOC(=O)Nc1ccc(C(=O)OCCC)cc1`, the concentration for half-maximal inhibition (IC50) is 2.34 µM and the 90% effect concentration (IC90) is greater than 100 µM.
In the same order, the values of `Cc1cccc(NC(=O)c2nc[nH]c2C(=O)N[C@@H](C)C(=O)OCc2ccccc2)c1` are 59.9 µM and greater than 100 µM.
Turning to `c1ccc(CCCN2CCN(CCOC(c3ccccc3)c3ccccc3)CC2)cc1`, the half-inhibitory concentration (IC50) was 5.22 µM, the IC90 came out at 5.82 µM and the cytotoxic concentration (CC50) is greater than 40 µM.
In the same order, the values of `CC(C)N=c1cc2n(-c3ccc(Cl)cc3)c3ccccc3nc-2cc1Nc1ccc(Cl)cc1` are less than 0.391 µM, less than 0.391 µM and greater than 40 µM.
Regarding `CN(C)CCNC(=O)/C(=C/c1ccc(-c2ccc(Cl)cc2Cl)o1)NC(=O)c1ccccc1`, the IC50 was 10.5 µM, the 90% effect concentration (IC90) stood at 11.6 µM and the CC50 amounted to 10.2 µM.
In the same order, the values of `OCCN1CCN(c2nc(-c3ccccc3)nc3c2oc2ccccc23)CC1` are 4.89 µM, 8.31 µM and 13.6 µM.
In the case of `COC(=O)CSc1cc(SCC(=O)OC)c(C#N)c(SCC(=O)OC)c1`, the IC50 is 0.785 µM and the IC90 worked out at 2.61 µM.
As to `CO[C@H]1C=CO[C@@]2(C)Oc3c(C)c(O)c4c(O)c(c5c(c4c3C2=O)NC2(CCN(CC(C)C)CC2)N=5)=NC(=O)C(C)=CC=C[C@H](C)[C@H](O)[C@@H](C)[C@@H](O)[C@@H](C)[C@H](OC(C)=O)[C@@H]1C`, the IC50 is less than 0.195 µM, the 90% effect concentration (IC90) is less than 0.195 µM and the CC50 is greater than 40 µM.
As to `CCN(CC)c1ccc(/C=C(/C#N)c2nc3ccccc3[nH]2)c(OC(C)C)c1`, the IC50 was 0.488 µM, the concentration for an effect of 90% (IC90) was 0.936 µM and the CC50 is greater than 40 µM.
In the same order, the values of `O=C(/C=C/c1cccnc1)/C=C/c1cccnc1` are 0.909 µM, 1.33 µM and 3.09 µM.
As for `O=C(Nc1nnc(-c2ccc(F)cc2)o1)c1cc(Cl)sc1Cl`, the IC50 is less than 0.195 µM, the 90% effect concentration (IC90) stood at 2.86 µM and the half-maximal cytotoxic concentration (CC50) is 18.2 µM.
Taken in the same sequence, the figures for `CCNC(=O)COC(=O)c1ccc(-c2nc3ccccc3s2)s1` were 7.63 µM, 15 µM and greater than 40 µM.
The molecule `O=C(/C=C/c1ccc(Cl)cc1Cl)N1CCN(c2ccc([N+](=O)[O-])c(N3CCOCC3)c2)CC1` had a half-maximal cytotoxic concentration (CC50) greater than 40 µM.
Consider `Cc1ccc(Sc2ccc(C=C3C(=O)N(C)C(=O)N(C)C3=O)o2)cc1`, for which the half-maximal inhibitory concentration (IC50) is 7.56 µM and the 90% effect concentration (IC90) is 20.8 µM.
Consider `Cc1ccc(Nc2nc(CSc3nnc(-c4cccs4)o3)cs2)cc1`, for which the concentration for half-maximal inhibition (IC50) was 6.8 µM, the IC90 worked out at 15.9 µM and the cytotoxic concentration (CC50) is greater than 40 µM.
As to `CCCOC(=O)CSc1nc(N)c(C#N)c(-c2ccco2)c1C#N`, the half-maximal inhibitory concentration (IC50) is less than 0.195 µM and the concentration for an effect of 90% (IC90) worked out at 0.907 µM.
For the molecule `N=C1S/C(=C\c2ccc(-c3cccc(Cl)c3)o2)C(=O)N1c1nccs1`, the IC50 is less than 0.195 µM, the 90% effect concentration (IC90) came to 13.9 µM and the 50% cytotoxic concentration (CC50) stood at 5.77 µM.
As for `CC(Oc1ccc2oc3ccccc3c2c1)C(=O)NC12CC3CC(CC(C3)C1)C2` (centres undefined), the IC50 is 44.7 µM and the IC90 is greater than 100 µM.
For the molecule `COc1ccc(NC(=O)CCc2nc(-c3ccc(C)cc3)no2)cc1Cl`, the IC50 was 3.59 µM, the concentration for an effect of 90% (IC90) was greater than 100 µM and the CC50 is greater than 40 µM.
In the same order, the values of `Cc1ccc(CNc2nc(-c3cccs3)nc3ccccc23)cc1` are 9.84 µM, 18.7 µM and greater than 40 µM.
Regarding `COc1ccc(NC(=O)COC(=O)CCCOc2ccc(Cl)cc2Cl)cc1Cl`, the IC50 was 80.6 µM and the IC90 was greater than 100 µM.
As to `CCCCc1nc2sc3c(SCCN(C)C)ncnc3c2c2c1CCC2`, the IC50 is 12.8 µM, the IC90 was determined as 25.4 µM and the CC50 is greater than 40 µM.
Taken in the same sequence, the figures for `CCn1ccnc1CN(C)Cc1cn(-c2ccc(C)cc2)nc1-c1ccc(F)cc1` were 5.81 µM, 6.72 µM and greater than 40 µM.
For the molecule `Cc1ccc(S(=O)(=O)CCc2nnc(NC(=O)c3ccccn3)s2)cc1`, the 50% cytotoxic concentration (CC50) came to 38 µM.
Turning to `O=[N+]([O-])c1ccc(COc2ccc(-c3[nH]ncc3-c3ccc(Cl)cc3)c(O)c2)cc1`, the 50% inhibitory concentration (IC50) was 23 µM, the IC90 was greater than 100 µM and the cytotoxic concentration (CC50) was greater than 40 µM.
`Cc1sc(N)nc1-c1ccccc1` came in with a concentration for an effect of 90% (IC90) greater than 100 µM.
On to `Cc1ccc(NC(=O)COc2ccc(-n3ccnc3)cc2)cc1Cl`, for which the IC50 was 3.82 µM and the IC90 came out at 12.2 µM.
`O=C(COC(=O)c1ccc(-c2ccc([N+](=O)[O-])cc2)o1)NC(=O)NC12CC3CC(CC(C3)C1)C2`: the concentration for half-maximal inhibition (IC50) is 10.3 µM and the IC90 is greater than 100 µM.
For the molecule `O=C(CNC1CCCC1)Nc1ccc(N2CCCCCC2)cc1`, the IC50 was 8.04 µM, the 90% effect concentration (IC90) amounted to 10.2 µM and the CC50 was determined as 37.7 µM.
On to `Clc1ccc(OCCCNCc2ccccc2)c(Br)c1`, for which the IC50 is 23.2 µM, the IC90 is 25.1 µM and the CC50 is greater than 40 µM.
In the same order, the values of `CC(=O)n1cc(N(C(=O)CCl)c2ccc(C)cc2)c2ccccc21` are 4.64 µM, 17.1 µM and 0.471 µM.
For the molecule `CCOC(=O)c1ccc(NC(=O)c2cc3ccccc3o2)cc1`, the half-inhibitory concentration (IC50) was 4.67 µM and the 90% effect concentration (IC90) was greater than 100 µM.
In the case of `CCCOc1cccc(-c2nn(-c3ccccc3)cc2/C=C(\C#N)C(=O)NCCCn2ccnc2)c1`, the half-inhibitory concentration (IC50) was 10.9 µM, the 90% effect concentration (IC90) was determined as 11.9 µM and the 50% cytotoxic concentration (CC50) is greater than 40 µM.

(Values after PubChem BioAssay AID1626 (SRMLSC, 2009).)
